Columns and labels:
[1] = Quantum yield of singlet oxygen by 1270 nm phosphorescence; format: physicochemical; conditions: in ethanol, absorbance 0.1, irradiated at 355 nm, phosphorescence at 1270 nm, TPPS standard; sodium salt
Protocol: (§1) Next, the fluorescence quantum yields (Φf) and fluorescence lifetimes (τf) of the compounds were measured. Moreover, the quantum yields (ΦΔ) of singlet oxygen generated from the compounds of Structural Formulae (IIa) and (III) were measured.
Next, the measurement of ΦΔ will be described. First, the compounds of Structural Formula (IIa) and (III) were each dissolved in ethanol at such a concentration that gave an absorbance of 0.1, and then were irradiated with light at 355 nm using Nd^3+:YAG LASER (LS-2137U, manufactured by Lotis TII). Next, singlet oxygen was measured using a self-produced infrared emission measurement apparatus in which a near-infrared photomultiplier tube (R5509-42, manufactured by Hamamatsu Photonics K.K.) is used. It should be noted that singlet oxygen was measured 17 times, and the average value was shown as a phosphorescence spectrum in FIG. 4. Singlet oxygen emits phosphorescence at a near-infrared wavelength 1270 nm. Therefore, in this specification, ΦΔ was determined by measuring the intensity of such phosphorescence. TPPS (ΦΔ=0.63) was used as a standard substance for determination of ΦΔ. ΦΔ of the compound of Structural Formula (IIa) and ΦΔ of the compound of Structural Formula (III) were determined as 0.57 and 0.53, respectively.

[2] = Fluorescence quantum yield, absolute PL quantum yield spectrometer; format: physicochemical
Protocol: as §1

[3] = Fluorescence lifetime from fluorescence decay curves; format: physicochemical; conditions: monoexponential curve fitting, deconvolution method
Protocol: as §1
Each of the fluorescence decay curves was subjected to curve fitting with a monoexponential function using a deconvolution method, and thus τf was determined.

[4] = tested on: Human-derived A549 cells; test: Efficiency of uptake by cancer cells; format: cell-based; conditions: 3 μM, 12 hours incubation, fluorescence ex 418 nm / em 646 nm
Text: The compound of Structural Formula (III) to which a sulfur-containing sugar-chain is linked is more likely to accumulate in tumor. Regarding such an improvement in the accumulation, the following describes the evaluation of the efficiency of uptake of the compounds of structural Formulae (IIa) and (III) by cancer cells.
Human-derived A549 cells were used as cancer cells. Dulbecco's Modified Eagle Medium (DMEM) supplemented with 10% Fetal Bovine Serum (FBS: manufactured by EQUITECH-BIO, INC.) and 1% Penicillin Streptomycin Glutamine (Invitrogen (trademark)) was used as a culture medium, which will be described later. Phosphate buffered saline (PBS) was used as a cell washing solution, and PBS containing 0.05% trypsin and 0.02% EDTA was used as a cell detaching solution. A circular plastic petri dish (Greiner Bio-one, 628160) with a diameter of 6 cm was used as a culture container.
First, an A549 cell suspension was cultured on a culture medium. 100 μL of the cell suspension was added to each well of a black 96-well plate and cultured at 37° C. in a 5% CO2 atmosphere for a day. […] Furthermore, the concentrations of the photosensitizing agents inside the cells were quantified using a fluorescence micro plate reader (Infinite M200 Pro, manufactured by TECAN). For the fluorescence observation, the excitation wavelength was 418 nm, and the observation wavelength was 646 nm. […]

[5] = standard for determination of ΦΔ; cited from earlier work

Compound	quantum yield of singlet oxygen (ΦΔ) [1]	fluorescence quantum yield (Φf) [2]	fluorescence lifetime (τf) [3]	relative uptake efficiency versus compound of Structural Formula (III) [4] [times]	quantum yield of singlet oxygen (ΦΔ) of standard substance [5]
3-trimethylsilyl-1-benzenecarboxyamide,N-[3-n-propyl-α-D-quinovopyranoside]-5-[10,15,20-tris(3-methoxycarbonyl-5-trimethylsilylphenyl)porphyrin] sodium salt [IIa]	0.53	0.063	9.2	1.8	–
O=S(=O)(O)c1ccc(-c2c3nc(c(-c4ccc(S(=O)(=O)O)cc4)c4ccc([nH]4)c(-c4ccc(S(=O)(=O)O)cc4)c4nc(c(-c5ccc(S(=O)(=O)O)cc5)c5ccc2[nH]5)C=C4)C=C3)cc1 [TPPS]	–	–	–	–	0.63
COC(=O)c1cc(-c2c3nc(c(-c4cc(C(=O)OC)cc([Si](C)(C)C)c4)c4ccc([nH]4)c(-c4cc(C(=O)OC)cc([Si](C)(C)C)c4)c4nc(c(-c5cc(C(=O)NCCCO[C@H]6O[C@H](CO)[C@@H](O)[C@H](O)[C@H]6O)cc([Si](C)(C)C)c5)c5ccc2[nH]5)C=C4)C=C3)cc([Si](C)(C)C)c1 [IId, 3-trimethylsilyl-1-benzenecarboxyamide,N-[3-n-propyl-α-D-glucopyranoside]-5-[10,15,20-tris(3-methoxycarbonyl-5-trimethylsilylphenyl)porphyrin]]	–	0.056	9.3	–	–

— patent publication US11643430B2, “Porphyrin compound or salt thereof, cancer therapeutic agent, photosensitizer, and fluorescent probe” (M.T.3, Inc., priority 2020, dated 2023)
